Assay results from the supplement of paper PMC11061612.

Columns and labels:
[1] = compound: CN(CC[C@H](CSC1=CC=CC=C1)NC2=C(C=C(C=C2)S(=O)(=O)NC(=O)C3=CC=C(C=C3)N4CCC(CC4)[C@H](C5=CC=CC=C5C6=CC=C(C=C6)Cl)O)S(=O)(=O)C(F)(F)F)CCO [AZD4320]; details: max 1 µM
Procedure, shortened: (§1)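 Cancer cell lines were dosed for 72 hours (final DMSO typically 0.2%) after 24 hours at 37°C and 5% CO2 in 1536-well plates containing 7.5 μl DMEM/F12 or RPMI with 10% FBS. Viability came from CellTiter-Glo 2.0 luminescence, scaled between blank-well and DMSO-well means, and dose responses were fitted to a two-parameter logistic curve with a non-linear mixed effects model. The single-agent IC50 was obtained from this fit.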

[2] = compound: CC1(C)CCC(CN2CCN(c3ccc(C(=O)NS(=O)(=O)c4ccc(NCC5CCOCC5)c([N+](=O)[O-])c4)c(Oc4cnc5[nH]ccc5c4)c3)CC2)=C(c2ccc(Cl)cc2)C1 [Venetoclax]; details: max 1 µM
Procedure, shortened: as §1

[3] = compound: CC1=C(C(=CC=C1)Cl)NC(=O)C2=CN=C(S2)NC3=CC(=NC(=N3)C)N4CCN(CC4)CCO [Dasatinib]; details: max 2 µM
Procedure, shortened: as §1

[4] = compound: Cc1nc(-c2cn3c(n2)-c2ccc(-c4cnn(C(C)(C)C(N)=O)c4)cc2OCC3)n(C(C)C)n1 [Taselisib]; details: max 10 µM
Procedure, shortened: as §1

[5] = compound: COc1cc(Nc2ncc3c(n2)-c2ccc(Cl)cc2C(c2c(F)cccc2OC)=NC3)ccc1C(=O)O [Alisertib]; details: max 10 µM
Procedure, shortened: as §1

[6] = compound: C1CN(CCC1(C(=O)N[C@@H](CCO)C2=CC=C(C=C2)Cl)N)C3=NC=NC4=C3C=CN4 [Capivasertib]; details: max 10 µM
Procedure, shortened: as §1

[7] = compound: NC1(c2ccc(-c3nc4ccn5c(=O)[nH]nc5c4cc3-c3ccccc3)cc2)CCC1 [MK-2206]; details: max 10 µM
Procedure, shortened: as §1

[8] = compound: COc1cccc2c1C(=O)c1c(O)c3c(c(O)c1C2=O)C[C@@](O)(C(=O)CO)C[C@@H]3O[C@H]1C[C@H](N)[C@H](O)[C@H](C)O1 [Doxorubicin]; details: max 1 µM
Procedure, shortened: as §1

[9] = compound: C[C@@H](c1ccc2nccn2c1)n1nnc2ncc(-c3cnn(C)c3)nc21 [Savolitinib]; details: max 1 µM
Procedure, shortened: as §1

[10] = compound: COc1cc2ncnc(Nc3ccc(F)c(Cl)c3)c2cc1OCCCN1CCOCC1 [Gefitinib]; details: max 10 µM
Procedure, shortened: as §1

[11] = compound: C[C@@H](Nc1cc(F)cc(F)c1)c1cc(C(=O)N(C)C)cc2c(=O)cc(N3CCOCC3)oc12 [AZD8186]; details: max 3 µM
Procedure, shortened: as §1

[12] = compound: CC1=CN2[C@@H](C1)C=NC3=CC(=C(C=C3C2=O)OC)OCCCCCOC4=C(C=C5C(=C4)N=C[C@@H]6CC(=CN6C5=O)C)OC [SG3199]; details: max 0.001 µM
Procedure, shortened: as §1

[13] = compound: C[C@@H]1COCCN1C2=NC(=NC(=C2)C3(CC3)[S@](=N)(=O)C)C4=C5C=CNC5=NC=C4 [AZD6738]; details: max 10 µM
Procedure, shortened: as §1

[14] = compound: CC(=O)Nc1cccc(-n2c(=O)n(C3CC3)c(=O)c3c(Nc4ccc(I)cc4F)n(C)c(=O)c(C)c32)c1 [Trametinib]; details: max 1 µM
Procedure, shortened: as §1

[15] = compound: Cc1cc2ncnn2cc1Nc1ncc2c(n1)n(C1CCOCC1)c(=O)n2C [AZD7648]; details: max 10 µM
Procedure, shortened: as §1

[16] = compound: Cc1c2c(nn1C)CSCc1cc(n(C)n1)CSc1cc(c3ccccc3c1)OCCCc1c(C(=O)O)n(C)c3c-2c(Cl)ccc13 [AZD5991]; details: max 1 µM
Procedure, shortened: as §1

[17] = compound: CC(C)n1c(=O)n(C)c2cnc3cc(F)c(-c4ccc(OCCCN5CCCCC5)nc4)cc3c21 [AZD1390]; details: max 0.3 µM
Procedure, shortened: as §1

[18] = compound: C[C@@H](Oc1cc(-c2cnn(C3CCNCC3)c2)cnc1N)c1c(Cl)ccc(F)c1Cl [Crizotinib]; details: max 10 µM
Procedure, shortened: as §1

[19] = compound: COc1nnc2ccc(N3CCC(c4ccc(OCCN5CCN(C)C(=O)[C@H]5C)cc4)CC3)nn12 [AZD5153]; details: max 1 µM
Procedure, shortened: as §1

[20] = compound: C=CCn1c(=O)c2cnc(Nc3ccc(N4CCN(C)CC4)cc3)nc2n1-c1cccc(C(C)(C)O)n1 [AZD1775]; details: max 3 µM
Procedure, shortened: as §1

[21] = compound: CC(=O)c1c(C)c2cnc(Nc3ccc(N4CCNCC4)cn3)nc2n(C2CCCC2)c1=O [Palbociclib]; details: max 10 µM
Procedure, shortened: as §1

[22] = compound: CCc1c2c(nc3ccc(O)cc13)-c1cc3c(c(=O)n1C2)COC(=O)[C@]3(O)CC [SN-38]; details: max 0.3 µM
Procedure, shortened: as §1

[23] = compound: CS(=O)(=O)CCNCc1ccc(-c2ccc3ncnc(Nc4ccc(OCc5cccc(F)c5)c(Cl)c4)c3c2)o1 [Lapatinib]; details: max 10 µM
Procedure, shortened: as §1

[24] = compound: COc1cccc(OCCCN)c1-c1cc(Nc2cnc(C#N)cn2)n[nH]1 [Prexasertib]; details: max 1 µM
Procedure, shortened: as §1

[25] = compound: O=C(c1cc(Cc2n[nH]c(=O)c3ccccc23)ccc1F)N1CCN(C(=O)C2CC2)CC1 [Olaparib]; details: max 10 µM
Procedure, shortened: as §1

[26] = compound: Cn1cnc2c(F)c(Nc3ccc(Br)cc3Cl)c(C(=O)NOCCO)cc21 [Selumetinib]; details: max 10 µM
Procedure, shortened: as §1

[27] = compound: CCN(CCO)CCCOc1ccc2c(Nc3cc(CC(=O)Nc4cccc(F)c4)[nH]n3)ncnc2c1 [AZD2811]; details: max 1 µM
Procedure, shortened: as §1

[28] = compound: CN(C)CCCOc1ccc(-c2ccc3ncc4c(c3c2)n(C2CCOCC2)c(=O)n4C)cn1 [AZD0156]; details: max 3 µM
Procedure, shortened: as §1

Cell Line	IC50, cell viability 72 h [1]	IC50, cell viability 72 h [2]	IC50, cell viability 72 h [3]	IC50, cell viability 72 h [4]	IC50, cell viability 72 h [5]	IC50, cell viability 72 h [6]	IC50, cell viability 72 h [7]	IC50, cell viability 72 h [8]	IC50, cell viability 72 h [9]	IC50, cell viability 72 h [10]	IC50, cell viability 72 h [11]	IC50, cell viability 72 h [12]	IC50, cell viability 72 h [13]	IC50, cell viability 72 h [14]	IC50, cell viability 72 h [15]	IC50, cell viability 72 h [16]	IC50, cell viability 72 h [17]	IC50, cell viability 72 h [18]	IC50, cell viability 72 h [19]	IC50, cell viability 72 h [20]	IC50, cell viability 72 h [21]	IC50, cell viability 72 h [22]	IC50, cell viability 72 h [23]	IC50, cell viability 72 h [24]	IC50, cell viability 72 h [25]	IC50, cell viability 72 h [26]	IC50, cell viability 72 h [27]	IC50, cell viability 72 h [28]
NCI-H596 (Other Solid Carcinomas)	> 1000 nM	> 1000 nM	> 2000 nM	4.95 µM	> 10000 nM	> 10 µM	> 10 µM	> 1000 nM	> 1000 nM	> 10 µM	> 3000 nM	> 1 nM	> 10 µM	> 1000 nM	> 10 µM	> 1000 nM	> 300 nM	> 10 µM	301 nM	1450 nM	> 10 µM	> 300 nM	> 10 µM	866 nM	> 10 µM	> 10 µM	> 1000 nM	> 3000 nM
NCI-H1876 (Small Cell Lung Carcinoma)	176 nM	> 1000 nM	> 2000 nM	3.9 µM	265 nM	> 10 µM	> 10 µM	221 nM	> 1000 nM	> 10 µM	> 3000 nM	> 1 nM	4.71 µM	> 1000 nM	> 10 µM	> 1000 nM	> 300 nM	5.91 µM	> 1000 nM	330 nM	> 10 µM	1.03 nM	> 10 µM	29.2 nM	4.44 µM	> 10 µM	149 nM	> 3000 nM
AM-38 (Glioblastoma)	> 1000 nM	> 1000 nM	> 2000 nM	> 10 µM	> 10000 nM	> 10 µM		694 nM	> 1000 nM	> 10 µM	> 3000 nM	> 1 nM	4.8 µM	71.7 nM	> 10 µM	> 1000 nM	> 300 nM	> 10 µM	> 1000 nM	2610 nM	> 10 µM	22.7 nM	> 10 µM	126 nM	> 10 µM	3.75 µM	> 1000 nM	> 3000 nM
PL4 (Pancreatic Carcinoma)	> 1000 nM	> 1000 nM	634 nM	2.26 µM	8070 nM	> 10 µM		> 1000 nM	> 1000 nM	> 10 µM	> 3000 nM	> 1 nM	6.41 µM	106 nM	> 10 µM	> 1000 nM	> 300 nM	> 10 µM	969 nM	1360 nM	> 10 µM	43.5 nM	> 10 µM	117 nM	> 10 µM	> 10 µM	> 1000 nM	> 3000 nM
SiHa (Cervical Carcinoma)	> 1000 nM	> 1000 nM	> 2000 nM	> 10 µM	> 10000 nM	> 10 µM		> 1000 nM	> 1000 nM	> 10 µM	> 3000 nM	> 1 nM	> 10 µM	> 1000 nM	> 10 µM	> 1000 nM	> 300 nM	> 10 µM	444 nM	> 3000 nM	> 10 µM	> 300 nM	> 10 µM	> 1000 nM	> 10 µM	> 10 µM	> 1000 nM	> 3000 nM
P32-ISH (Burkitt's Lymphoma)	> 1000 nM	> 1000 nM	> 2000 nM	8.18 µM	20 nM	8.02 µM		303 nM	> 1000 nM	> 10 µM	> 3000 nM	> 1 nM	2.6 µM	> 1000 nM	> 10 µM	50.1 nM	> 300 nM	2.27 µM	136 nM	218 nM	6.15 µM	1.82 nM	6.9 µM	5.37 nM	> 10 µM	> 10 µM	77 nM	> 3000 nM
SNU-407 (Colorectal Carcinoma)	> 1000 nM	> 1000 nM	> 2000 nM	0.365 µM	1150 nM	6.34 µM	> 10 µM	> 1000 nM	> 1000 nM	> 10 µM	> 3000 nM	> 1 nM	4.12 µM	74.3 nM	> 10 µM	> 1000 nM	> 300 nM	> 10 µM	62.9 nM	1570 nM	> 10 µM	160 nM	> 10 µM	458 nM	> 10 µM	2.56 µM	> 1000 nM	> 3000 nM
